Laboratory results from the NIST ThermoML archive (doi:10.1021/je7003098).
± gives the expanded uncertainty stated by the source.

Details: for mass density: 101.33 kPa, Liquid, Pycnometric method; for surface tension liquid-gas: Ring tensiometer

**Q.** For `CCCC[N+](C)(C)C.O=S(=O)([N-]S(=O)(=O)C(F)(F)F)C(F)(F)F` [butyltrimethylammonium bis(trifluoromethylsulfonyl)imide], which mass density (298.15 K) is on record?
**A.** 1374.7 ± 27 kg/m3

**Q.** What about the surface tension liquid-gas (298.35 K) of the same molecule?
**A.** 38.05 ± 5.4 mN/m

**Q.** What about the surface tension liquid-gas (302.33 K) of the same molecule?
**A.** 37.9 ± 5.4 mN/m

**Q.** And the mass density (303.15 K)?
**A.** 1368.6 ± 27 kg/m3

**Q.** And the surface tension liquid-gas (306.15 K)?
**A.** 37.8 ± 5.4 mN/m

**Q.** And the mass density (308.15 K)?
**A.** 1365.6 ± 27 kg/m3

**Q.** And the surface tension liquid-gas (309.93 K)?
**A.** 37.69 ± 5.4 mN/m

**Q.** What about the mass density (313.15 K) of the same molecule?
**A.** 1361.4 ± 27 kg/m3

**Q.** And the surface tension liquid-gas (314.79 K)?
**A.** 37.48 ± 5.3 mN/m

**Q.** What about the mass density (318.15 K) of the same molecule?
**A.** 1357.3 ± 27 kg/m3

**Q.** And the surface tension liquid-gas (320.39 K)?
**A.** 37.28 ± 5.3 mN/m

**Q.** And the mass density (323.15 K)?
**A.** 1353.7 ± 27 kg/m3

**Q.** And the surface tension liquid-gas (326.4 K)?
**A.** 37.09 ± 5.3 mN/m

**Q.** What about the mass density (328.15 K) of the same molecule?
**A.** 1349.7 ± 27 kg/m3

**Q.** And the surface tension liquid-gas (330.16 K)?
**A.** 36.91 ± 5.3 mN/m

**Q.** And the mass density (333.15 K)?
**A.** 1343.9 ± 27 kg/m3

**Q.** What about the surface tension liquid-gas (335.64 K) of the same molecule?
**A.** 36.68 ± 5.2 mN/m

**Q.** What about the surface tension liquid-gas (340.58 K) of the same molecule?
**A.** 36.5 ± 5.2 mN/m

**Q.** Which surface tension liquid-gas (296.66 K) does the source give for `CCCC[P+](CC)(CCCC)CCCC.CCOP(=O)([O-])OCC` [tributylethylphosphonium diethylphosphate] here?
**A.** 33.6 ± 4.8 mN/m

**Q.** What about the mass density (298.15 K) of the same molecule?
**A.** 997.8 ± 26 kg/m3

**Q.** What about the surface tension liquid-gas (302.18 K) of the same molecule?
**A.** 33.29 ± 4.8 mN/m

**Q.** And the mass density (303.15 K)?
**A.** 995.7 ± 26 kg/m3

**Q.** What about the surface tension liquid-gas (307.24 K) of the same molecule?
**A.** 33.14 ± 4.7 mN/m

**Q.** What about the mass density (308.15 K) of the same molecule?
**A.** 992.8 ± 26 kg/m3

**Q.** And the surface tension liquid-gas (312.34 K)?
**A.** 32.82 ± 4.7 mN/m

**Q.** And the mass density (313.15 K)?
**A.** 989.7 ± 26 kg/m3

**Q.** What about the mass density (318.15 K) of the same molecule?
**A.** 985.8 ± 26 kg/m3

**Q.** What about the surface tension liquid-gas (318.36 K) of the same molecule?
**A.** 32.24 ± 4.6 mN/m

**Q.** And the mass density (323.15 K)?
**A.** 982.6 ± 26 kg/m3

**Q.** And the surface tension liquid-gas (323.59 K)?
**A.** 31.62 ± 4.5 mN/m

**Q.** And the mass density (328.15 K)?
**A.** 979.5 ± 26 kg/m3

**Q.** What about the surface tension liquid-gas (329.67 K) of the same molecule?
**A.** 31.14 ± 4.5 mN/m

**Q.** What about the mass density (333.15 K) of the same molecule?
**A.** 975.8 ± 26 kg/m3

**Q.** What about the surface tension liquid-gas (336.36 K) of the same molecule?
**A.** 30.66 ± 4.4 mN/m

**Q.** What about the surface tension liquid-gas (343.4 K) of the same molecule?
**A.** 30.15 ± 4.3 mN/m

**Q.** And the surface tension liquid-gas (347.75 K)?
**A.** 29.82 ± 4.3 mN/m

**Q.** And the surface tension liquid-gas (350.86 K)?
**A.** 29.59 ± 4.2 mN/m

**Q.** Which results are given for `CCCCCC[N+](C)(C)C.O=S(=O)([N-]S(=O)(=O)C(F)(F)F)C(F)(F)F` [hexyltrimethylammonium bis[(trifluoromethyl)sulfonyl]imide]?
**A.** mass density (298.15 K): 1310.6 ± 26 kg/m3; surface tension liquid-gas (300.35 K): 35.88 ± 5.1 mN/m; surface tension liquid-gas (302.35 K): 35.71 ± 5.1 mN/m; mass density (303.15 K): 1307.8 ± 26 kg/m3; surface tension liquid-gas (304.25 K): 35.57 ± 5.1 mN/m; surface tension liquid-gas (307.65 K): 35.32 ± 5 mN/m; mass density (308.15 K): 1304 ± 26 kg/m3; surface tension liquid-gas (311.05 K): 35.09 ± 5 mN/m; mass density (313.15 K): 1299.5 ± 26 kg/m3; surface tension liquid-gas (314.75 K): 34.86 ± 5 mN/m; surface tension liquid-gas (318.15 K): 34.64 ± 5 mN/m; mass density (318.15 K): 1295.7 ± 26 kg/m3; surface tension liquid-gas (322.55 K): 34.36 ± 4.9 mN/m; mass density (323.15 K): 1292.1 ± 26 kg/m3; surface tension liquid-gas (326.25 K): 34.14 ± 4.9 mN/m; mass density (328.15 K): 1287.9 ± 26 kg/m3; surface tension liquid-gas (331.35 K): 33.86 ± 4.8 mN/m; mass density (333.15 K): 1283.9 ± 26 kg/m3; surface tension liquid-gas (333.35 K): 33.77 ± 4.8 mN/m

**Q.** For `CCCCCCCCCCCCCC[P+](CCCCCC)(CCCCCC)CCCCCC.[Cl-]` [trihexyl(tetradecyl)phosphonium chloride], which surface tension liquid-gas (297.99 K) is on record?
**A.** 33.62 ± 4.8 mN/m

**Q.** And the mass density (298.15 K)?
**A.** 882.6 ± 25 kg/m3

**Q.** And the surface tension liquid-gas (302.94 K)?
**A.** 33.15 ± 4.7 mN/m

**Q.** What about the mass density (303.15 K) of the same molecule?
**A.** 880.1 ± 25 kg/m3

**Q.** And the surface tension liquid-gas (307.4 K)?
**A.** 32.72 ± 4.6 mN/m

**Q.** What about the mass density (308.15 K) of the same molecule?
**A.** 877.9 ± 25 kg/m3

**Q.** What about the surface tension liquid-gas (312.09 K) of the same molecule?
**A.** 32.3 ± 4.6 mN/m

**Q.** What about the mass density (313.15 K) of the same molecule?
**A.** 875.4 ± 25 kg/m3

**Q.** What about the surface tension liquid-gas (315.84 K) of the same molecule?
**A.** 32.01 ± 4.5 mN/m

**Q.** And the mass density (318.15 K)?
**A.** 873.1 ± 25 kg/m3

**Q.** And the surface tension liquid-gas (319.49 K)?
**A.** 31.74 ± 4.5 mN/m

**Q.** What about the mass density (323.15 K) of the same molecule?
**A.** 869.4 ± 25 kg/m3

**Q.** And the surface tension liquid-gas (323.95 K)?
**A.** 31.43 ± 4.5 mN/m

**Q.** And the surface tension liquid-gas (327.96 K)?
**A.** 31.15 ± 4.4 mN/m

**Q.** And the mass density (328.15 K)?
**A.** 866.9 ± 25 kg/m3

**Q.** And the surface tension liquid-gas (332.81 K)?
**A.** 30.76 ± 4.4 mN/m

**Q.** And the mass density (333.15 K)?
**A.** 864.4 ± 25 kg/m3

**Q.** What about the surface tension liquid-gas (337.27 K) of the same molecule?
**A.** 30.42 ± 4.3 mN/m

**Q.** And the surface tension liquid-gas (342.09 K)?
**A.** 30 ± 4.3 mN/m

**Q.** What about the surface tension liquid-gas (347.68 K) of the same molecule?
**A.** 29.55 ± 4.2 mN/m

**Q.** Which results are given for `CCCCCCCCCC[N+](C)(C)C.O=S(=O)([N-]S(=O)(=O)C(F)(F)F)C(F)(F)F`?
**A.** mass density (298.15 K): 1226.3 ± 26 kg/m3; surface tension liquid-gas (300.96 K): 35.42 ± 5.1 mN/m; surface tension liquid-gas (302.95 K): 35.12 ± 5 mN/m; mass density (303.15 K): 1222.2 ± 26 kg/m3; surface tension liquid-gas (307.75 K): 34.81 ± 5 mN/m; mass density (308.15 K): 1218.6 ± 26 kg/m3; surface tension liquid-gas (312.28 K): 34.55 ± 4.9 mN/m; mass density (313.15 K): 1214.7 ± 26 kg/m3; surface tension liquid-gas (318.08 K): 34.2 ± 4.9 mN/m; mass density (318.15 K): 1210.6 ± 26 kg/m3; mass density (323.15 K): 1206.3 ± 26 kg/m3; surface tension liquid-gas (324.03 K): 33.71 ± 4.8 mN/m; mass density (328.15 K): 1204.7 ± 26 kg/m3; surface tension liquid-gas (330.53 K): 33.36 ± 4.8 mN/m; mass density (333.15 K): 1200.3 ± 26 kg/m3; surface tension liquid-gas (337.12 K): 32.82 ± 4.7 mN/m; surface tension liquid-gas (342.53 K): 32.51 ± 4.6 mN/m; surface tension liquid-gas (347.26 K): 32.23 ± 4.6 mN/m

**Q.** With `CCCCCCCCCCCCCC[P+](CCCC)(CCCC)CCCC.CCCCCCCCCCCCc1ccccc1S(=O)(=O)[O-]` [tributyl(tetradecyl)phosphonium 2-dodecylbenzenesulfonate] as the molecule, how does the mass density (298.15 K) read?
**A.** 938.4 ± 25 kg/m3

**Q.** What about the mass density (303.15 K) of the same molecule?
**A.** 937.1 ± 25 kg/m3

**Q.** What about the mass density (308.15 K) of the same molecule?
**A.** 933.7 ± 25 kg/m3

**Q.** And the mass density (313.15 K)?
**A.** 931.1 ± 25 kg/m3

**Q.** And the mass density (318.15 K)?
**A.** 928.4 ± 25 kg/m3

**Q.** What about the mass density (323.15 K) of the same molecule?
**A.** 925.4 ± 25 kg/m3

**Q.** And the mass density (328.15 K)?
**A.** 922.8 ± 25 kg/m3

**Q.** And the mass density (333.15 K)?
**A.** 920.1 ± 25 kg/m3

**Q.** What does the source list for `CCCCCC[n+]1ccn(C)c1.O=S(=O)([N-]S(=O)(=O)C(F)(F)F)C(F)(F)F`?
**A.** surface tension liquid-gas (297.22 K): 35.98 ± 5.1 mN/m; surface tension liquid-gas (301.22 K): 35.79 ± 5 mN/m; surface tension liquid-gas (305.48 K): 35.54 ± 5 mN/m; surface tension liquid-gas (309.14 K): 35.35 ± 5 mN/m; surface tension liquid-gas (312.48 K): 35.15 ± 4.9 mN/m; surface tension liquid-gas (316.28 K): 35.03 ± 4.9 mN/m; surface tension liquid-gas (319.87 K): 34.84 ± 4.9 mN/m; surface tension liquid-gas (323.57 K): 34.63 ± 4.9 mN/m; surface tension liquid-gas (327.48 K): 34.45 ± 4.9 mN/m; surface tension liquid-gas (331.24 K): 34.26 ± 4.8 mN/m; surface tension liquid-gas (334.91 K): 34.07 ± 4.8 mN/m; surface tension liquid-gas (340.92 K): 33.76 ± 4.8 mN/m; surface tension liquid-gas (346.42 K): 33.44 ± 4.7 mN/m
